Experimental data taken from US5919799A, “Imidazothiazole compound” (Nikken Chemicals Co., Ltd., priority 1995, dated 1999).
Where a name gives a salt, the structure may show the parent alone.

How the values were obtained:
[1] = test system: VJ-300 cells (multidrug resistant clones of KB cells); test: In vitro suppression of proliferation of VJ-300 cells by co-administration with vincristine; format: cell-based, Human
Method: As the incubation solution, an Eagle MEM medium (made by Nissui Seiyakusha) containing 10% fetal calf serum (made by Flow Laboratories Co.) and 0.292 mg/ml L-glutamine (made by Flow Laboratories Co.) was used. The action overcoming resistance to an anti-neoplastic agent and effect in enforcing the effect of an anti-neoplastic agent obtained through co-administration of the anti-neoplastic agent doxorubicin (adriamycin, ADM) and the test compounds were tested as follows:
The test cells were suspended in the incubation medium and adjusted to a cell density of about 200 cells/ml. 2 ml portions of the cell suspension were placed in petri dishes and incubated in a carbon dioxide gas incubator (5% CO2, 95% air) at 37° C. for 24 hours. Next, predetermined concentrations of aqueous ADM solutions and dimethyl sulfoxide (DMSO) solutions of predetermined concentrations of the test compounds were added into 5 to 10 μl portions, then incubation was continued for 7 days. After the end of the incubation, the samples were fixed by methanol, Giemsa staining was performed, the number of colonies in each dish was counted, and a volume reaction curve was prepared. This was used to calculate the ADM concentration at a 50% cell survival rate (LD50) and judge the action overcoming resistance to an anti-neoplastic agent and effect in enhancing the effect of an anti-neoplastic agent.
The LD50 concentration of ADM in the ADM control group for KB cells was shown as the resistance degree "1" and the other LD50 concentrations were indexed against this to calculate the resistance degrees. In Table 2, ADM alone (control) is the group administered ADM alone, ADM+Compound 1 is the group co-administered ADM and Compound 1 (1 μg /ml) and so on down to ADM+Compound 19 which is the group co-administered ADM and Compound 19 (1 μg /ml).
A volume reaction curve was prepared and the resistance calculated. In the Tables, VCR alone (control) is the group administered VCR alone, VCR+Compound 1 is the group co-administered VCR and Compound 1(1 μg /ml) and so on down to VCR+Compound 16 which is the group co-administered VCR and Compound 16 (1 μg/ml).

[2] = test system: VCR resistant murine leukemic (P388/VCR) cells; test: In vivo effect of overcoming resistance to vincristine in VCR resistant murine leukemia cell bearing mice (intraperitoneal); parameters: species or system CDF1 male mice; details: i.p., 5 days; for Rate of prolongation of life (T/C %): vs non-administered control
Method: (a) 10^6 VCR resistant murine leukemic (P388/VCR) cells were transplanted intraperitoneally to groups of six CDF1 male mice. The compound of the present invention (10 or 100 mg/kg) was suspended in 0.5% sodium carboxymethyl cellulose containing 0.1% Tween 80, while the VCR (100 μg/kg) was dissolved in physiological saline. These were each administered intraperitoneally over 5 days and the mice observed to find the days of survival and the rate of prolongation of life with respect to the control (T/C). The effect in overcoming resistance to an anti-neoplastic agent (T/V) was found from the following formula:
Effect in overcoming resistance to anti-neoplastic agent (T/V%)=(Rate of prolongation of life when co-administering VCR and compound of present invention (T/C%))/(Rate of prolongation of life by VCR alone
In Table 5, "Control" is the non-administered group, VCR alone is the group administered just VCR (100 μg /kg), VCR+Compound 1 is the group co-administered VCR (100 μg /kg) and Compound 1 (100 mg/kg) and so on to VCR+Compound 14* which is the group co-administered VCR (100 μg /kg) and Compound 14 (10 mg/kg).

[3] = Acute toxicity test (a), intraperitoneal, three animals per group; details: mouse, in vivo, ip, ICR male mice, up to 7 days after administration
Excerpt: (a) Animals used: ICR male mice (Charles River Japan), 7 to 8 weeks old, were used three to a group.
Test method: The compound of the present invention was suspended in 0.5% sodium carboxymethyl cellulose(CMC-Na) containing 0.1% Tween 80. […] The survival of the animals was examined up to 7 days after administration, then the Van Der Wearder area method was used to calculate the LD50 value.

[4] = test system: VCR resistant murine leukemia (P388/VCR) cells; test: In vivo effect of overcoming resistance with etoposide (VP-16) in P388/VCR bearing mice (intravenous); parameters: species or system CDF1 male mice; details: i.v., five days; for Rate of prolongation of life (T/C %): vs non-administered control
Method: (b) Separately, groups of six CDF1 male mice were intravenously given transplants of 1.2×10^5 VCR resistant murine leukemia (P388/VCR) cells. The compound of the present invention (20 or 40 mg/kg) was dissolved in 0.01N hydrochloric acid. Etoposide (VP-16, 3 mg/kg) was dissolved in a physiological saline solution. These were administered intravenously for five days and the days of survival were found. In the same way as (a), the rate of prolongation of life with respect to the control (T/C) and the effect in overcoming the resistance to an anti-neoplastic agent (T/V) were found. In Table 6, the control is the non-administered group, VP-16 alone is the group administered VP-16 (3 mg/kg) and VP-16+Compound 5 is the group co-administered VP-16 (3 mg/kg) and Compound 5 (40 mg/kg) and so on to VP-16+Compound 16 which is the group co-administered VP-16 (3 mg/kg) and Compound 16 (40 mg/kg).

[5] = Table 3, co-administered VCR and test compound (1 μg/ml), relative to VCR alone in KB = 1
[6] = VCR (100 μg/kg) + compound (100 mg/kg)
[7] = VCR (100 μg/kg) + compound (100 mg/kg), vs VCR alone
[8] = Table 4, co-administered VCR and test compound (1 μg/ml), relative to VCR alone in KB = 1
[9] = VP-16 (3 mg/kg) + compound (40 mg/kg)
[10] = VP-16 (3 mg/kg) + compound (40 mg/kg), vs VP-16 alone
[11] = VCR (100 μg/kg) + compound (10 mg/kg)
[12] = VP-16 (3 mg/kg) + compound (20 mg/kg)

| SMILES | Resistance with VCR, VJ-300 (resistance degree) [1, 5] | Days of survival [2, 6] | Effect overcoming resistance (T/V %) [2, 7] | Rate of prolongation of life (T/C %) [2, 6] | Resistance with VCR, VJ-300 (resistance degree) [1, 8] | other results |
| --- | --- | --- | --- | --- | --- | --- |
| CC[C@]1(O)C[C@H]2CN(CCc3c([nH]c4ccccc34)[C@@](C(=O)OC)(c3cc4c(cc3OC)N(C=O)[C@H]3[C@@](O)(C(=O)OC)[C@H](OC(C)=O)[C@]5(CC)C=CCN6CC[C@]43[C@@H]65)C2)C1 [VCR, vincristine, reference compound] | – | – | – | – | – | Resistance with VCR, VJ-300 (resistance degree) ([1]; Table 3, VCR alone (Control), relative to KB = 1): 306.6; Resistance with VCR, VJ-300 (resistance degree) ([1]; Table 4, VCR alone (Control), relative to KB = 1): 843.1; Days of survival ([2]; VCR alone (100 μg/kg)): 11.08 days; Effect overcoming resistance (T/V %) ([2]; VCR alone (100 μg/kg), reference = 100): 100%; Rate of prolongation of life (T/C %) ([2]; VCR alone (100 μg/kg)): 106% |
| O=C(NN=Cc1c(-c2cccc([N+](=O)[O-])c2)nc2sc3c(n12)CCCC3)c1cccnc1 [Compound 3, 5,6,7,8-tetrahydro-2-(3-nitrophenyl)-3-(3-pyridylcarbonylaminoiminomethyl)imidazo[2,1-b]benzothiazole] | 2.7 | – | – | – | – | – |
| O=C(NN=Cc1c(-c2ccccc2)nc2sc3c(n12)CCCC3)c1cccnc1 [Compound 1, 5,6,7,8-tetrahydro-2-phenyl-3-(3-pyridylcarbonylaminoiminomethyl)imidazo[2,1-b]benzothiazole] | 3.3 | 12.33 days | 111% | 118% | – | LD50 at 168 h [3]: ≥ 2000 mg/kg |
| CN1CCCC(C(=O)NN=Cc2c(-c3ccc(-c4ccccc4)cc3)nc3sc4c(n23)CCCC4)C1 (stereo not drawn) [Compound 11, 5,6,7,8-tetrahydro-2-biphenyl-3-[N-methyl-3-piperidylcarbonylaminoiminomethyl]imidazo[2,1-b]benzothiazole hydrochloride] | – | – | – | – | 1.3 | Days of survival [4, 9]: 13.0 days; Effect overcoming resistance (T/V %) [4, 10]: 116%; Rate of prolongation of life (T/C %) [4, 9]: 126% |
| O=C(NN=Cc1c(-c2ccccc2)nc2sc3c(n12)CCCC3)c1ccccc1 [Compound 8, 5,6,7,8-tetrahydro-2-phenyl-3-(benzoylaminoiminomethyl)imidazo[2,1-b]benzothiazole] | 3.5 | 12.00 days | 108% | 115% | – | – |
| CC(C)N1CCCC(C(=O)NN=Cc2c(-c3ccccc3)nc3sc4c(n23)CCCC4)C1 (stereo not drawn) [Compound 13, 5,6,7,8-tetrahydro-2-phenyl-3-[N-isopropyl-3-piperidylcarbonylaminoiminomethyl]imidazo[2,1-b]benzothiazole hydrochloride] | – | – | – | – | 2.0 | – |
| COc1cc(-c2nc3sc4c(n3c2C=NNC(=O)c2cccnc2)CCCC4)cc(OC)c1OC [Compound 4, 5,6,7,8-tetrahydro-2-(3,4,5-trimethoxyphenyl)-3-(3-pyridylcarbonylaminoiminomethyl)imidazo[2,1-b]benzothiazole] | 20.9 | 13.28 days | 120% | 127% | – | – |
| CCCN1CCCC(C(=O)NN=Cc2c(-c3ccccc3)nc3sc4ccccc4n23)C1 (stereo not drawn) [Compound 16, 2-phenyl-3-[N-propyl-3-piperidylcarbonylaminoimino-methyl]imidazo[2,1-b]benzothiazole hydrochloride] | – | – | – | – | 2.6 | Days of survival [4, 9]: 12.7 days; Effect overcoming resistance (T/V %) [4, 10]: 113%; Rate of prolongation of life (T/C %) [4, 9]: 123% |
| COc1cc([C@@H]2c3cc4c(cc3[C@@H](O[C@@H]3O[C@@H]5CO[C@@H](C)O[C@H]5[C@H](O)[C@H]3O)[C@H]3COC(=O)[C@H]23)OCO4)cc(OC)c1O [VP-16, Etoposide, reference compound] | – | – | – | – | – | Days of survival ([4]; VP-16 alone (3 mg/kg)): 11.2 days; Effect overcoming resistance (T/V %) ([4]; VP-16 alone (3 mg/kg), reference = 100): 100%; Rate of prolongation of life (T/C %) ([4]; VP-16 alone (3 mg/kg)): 109% |
| O=C(NN=Cc1c(-c2ccc(-c3ccccc3)cc2)nc2sc3c(n12)CCCC3)c1cccnc1 [Compound 2, 5,6,7,8-tetrahydro-2-biphenyl-3-(3-pyridylcarbonylaminoiminomethyl)imidazo[2,1-b]benzothiazole] | 1.6 | 12.67 days | 114% | 121% | – | LD50 at 168 h [3]: ≥ 2000 mg/kg |
| O=C(NN=Cc1c(-c2ccccc2)nc2sc3ccccc3n12)c1cccnc1 [Compound 14, 2-phenyl-3-[3-pyridylcarbonylaminoiminomethyl]imidazo[2,1-b]benzothiazole] | – | – | – | – | 4.0 | Days of survival [2, 11]: 13.67 days; Effect overcoming resistance (T/V %) ([2]; VCR (100 μg/kg) + compound (10 mg/kg), vs VCR alone): 124%; Rate of prolongation of life (T/C %) [2, 11]: 131% |
| O=C(NN=Cc1c(-c2ccccc2)nc2sc3c(n12)CCCC3)C1CCCN(Cc2ccccc2)C1 (stereo not drawn) [Compound 9, 5,6,7,8-tetrahydro-2-phenyl-3-[N-benzyl-3-piperidylcarbonylaminoiminomethyl]imidazo[2,1-b]benzothiazole] | – | – | – | – | 2.5 | – |
| CN1CCCC(C(=O)NN=Cc2c(-c3ccc([N+](=O)[O-])cc3)nc3sc4c(n23)CCCC4)C1 (stereo not drawn) [Compound 10, 5,6,7,8-tetrahydro-2-(4-nitrophenyl)-3-[N-methyl-3-piperidylcarbonylaminoiminomethyl]imidazo[2,1-b]benzothiazole hydrochloride] | – | – | – | – | 8.7 | Days of survival [4, 12]: 12.0 days; Effect overcoming resistance (T/V %) ([4]; VP-16 (3 mg/kg) + compound (20 mg/kg), vs VP-16 alone): 107%; Rate of prolongation of life (T/C %) [4, 12]: 117% |
